Results taken from patent US20130281311A1, “SPECIFIC BIOMARKER FOR IDENTIFICATON OF EXPOSURE TO PROPIONALDEHYDE AND THE METHOD OF IDENTIFICATION USING THE SAME” (KOREA INSTITUTE OF SCIENCE AND TECHNOLOGY, priority 2012, published 2013).

Assays:
[1] = tested on: AGT (angiotensinogen; NM_000029); assay: Oligo microarray gene expression in A549 cells, AGT; type: cell-based, human; details: A549, 48 hours at the concentration of Example 1-2, Cy5/Cy3 ratio
Experimental: (§1) A549 cells were distributed in 6-well plate at the density of 25×10^4 cells/ml, to which propionaldehyde was treated for 48 hours at the concentration determined in Example <1-2>. Total RNA was extracted from the cells by using trizol reagent according to the manufacturer's protocol (Invitrogen life technologies, USA), followed by purification by using RNease mini kit (Qiagen, USA). Genomic DNA was eliminated by using RNase-free DNase set (Qiagen, USA) during the RNA purification. The amount of total RNA was measured with spectrophotometer, and the concentration was confirmed by ND-1000 Spectrophotometer (Thermo Fisher Scientific Inc., USA) and Agilent 2100 Bioanalyzer (Agilent).
(§2) For oligomicroarray analysis, cDNA was synthesized by using the total RNA obtained from the experimental group treated with propionaldehyde prepared in Example <2-1>. 30 μg of the obtained total RNA and 2 μg of oligo (dT) primer (1 μg/μl) were mixed together, followed by reaction at 65° C. for 10 minutes, which was transferred into ice for annealing. […]
(§3) Hybridization images on the slide were scanned with Agilent C scanner (Agilent technologies, CA, USA). […] To obtain gene expression rate, the scanned images were analyzed by using Agilent Feature Extraction 10.7.3.1 (Agilent technologies, CA, USA). […]

A549 cells [2] = assay: Human whole genome oligo microarray, genome-wide expression change; type: cell-based; details: A549, 48 hours
Experimental: In a preferred embodiment of the present invention, to screen a biomarker for the identification of propionaldehyde specific exposure, the present inventors treated propionaldehyde to the human lung cancer tissue derived cell line A549 and then investigated cytotoxicity therein. […] Based on the result of that experiment, the concentration of propionaldehyde was determined. Propionaldehyde was treated to the human lung cancer tissue derived cell line at the determined concentration. From the cell line treated with propionaldehyde, mRNA was extracted, followed by synthesis of cDNA which was labeled with fluorescein (Cy5). The control not treated with propionaldehyde was labeled with Cy3. The fluorescein-labeled cDNA was hybridized with 8×60 k oligomicroarray chip [Human whole genome oligo microarray (Agilent, USA)], followed by scanning fluorescence image to analyze gene expression patterns (see FIG. 2). […] 5 kinds of genes whose expressions were increased or decreased specifically by propionaldehyde alone among […] (butylaldehyde, valeradehyde, hexanal, heptanal, octanal, and propionaldehyde) were selected by using real-time quantitative PCR (see FIG. 3, Table 3, and Table 4). […]
A549 cells were distributed in 6-well plate at the density of 25×10^4 cells/ml, to which propionaldehyde was treated for 48 hours at the concentration determined in Example <1-2>. […]

[3] = tested on: SECTM1 (secreted and transmembrane 1; NM_003004); assay: Oligo microarray gene expression in A549 cells, SECTM1; type: cell-based, human; details: A549, 48 hours at the concentration of Example 1-2, Cy5/Cy3 ratio
Experimental: as §1, §2, §3

[4] = tested on: AGT, LPAR1, SECTM1, TNFSF10, HMOX1; assay: Quantitative real-time RT-PCR of the 5 marker genes; type: cell-based, human; details: endogenous control MDH1; result in words
Experimental: At that time, to confirm the propionaldehyde specific expression changes, the said genes were investigated with their expression patterns using the additional 5 aldehydes listed in Table 3.
Particularly, cDNA was synthesized by performing reverse transcription by using oligo dT primer and Superscript kit (Omniscipt™ kit, Qiagen, Co., USA). 0.2 μl of the synthesized cDNA was mixed with 3.8 μl of water, 0.5 μl of sense primer, 0.5 μl of anti-sense primer, and 5 μl of SYBR Green I staining supermix (Bio-rad, USA), which was loaded in PCR tube, followed by reaction in My IQ real-time PCR machine designed to execute reaction as follows: step 1, 95° C. for 3 minutes; step 2 (45 cycles), step 2-1, 95° C. for 10 seconds; step 2-2, 57° C. for 45 seconds; step 3, 95° C. for 1 minute; step 4, 55° C. for 1 minute; step 5 (80 cycles), 55° C. for 10 seconds. The PCR product was stained with SYBR Green I (Bio-rad, USA) to quantify thereof. SYBR Green I staining is the method taking advantage of intercalating with double-stranded DNA, and thus the more double-stranded DNA is produced, the stronger the fluorescence intensity is obtained during PCR. Primers for the target gene used for PCR and the endogenous control (MDH1) were added to SYBR Green master-mix, followed by PCR. […] Then, PCR was performed and the result was analyzed by using quantitative software.

[5] = Cytotoxicity test (MTT assay); type: cell-based, human; details: human, A549 cells; A549 cell line, 48 hours, MTT, OD540; read-out: IC20 (the concentration showing 20% survival rate)
Experimental: (§4) A549 cells (Korean Cell Line Bank), the human lung cancer tissue derived cell line, were cultured in 100 mm dish containing RPMI (Gibro-BRL, USA) supplemented with 10% FBS until the confluency reached 80%. The present inventors selected propionaldehyde, one of aldehydes among many volatile organic compounds exposed in environment, as a target material based on the previous studies and reports, and then dissolved in DMSO (dimethyl sulfoxide). The concentration of vehicle was up to 0.1% in every experiment.
(§5) MTT assay was performed with A549 cell line according to the method of Mossman, et al (J. Immunol. Methods, 65, 55-63, 1983).
(§6) Particularly, the cells were distributed in 24-well plate (3.5×10^4 cells/well) containing RPMI (Gibro-BRL, USA) and then treated with propionaldehyde dissolved in DMSO. 48 hours later, 5 mg/ml of MTT (3-4,5-dimethylthiazol-2,5-diphenyltetra zolium bromide) was added thereto, followed by culture at 37° C. for 3 hours. Then, the medium was discarded and the formed formazan crystal was dissolved in […] of DMSO, which was aliquoted in 96-well plate. OD540 was measured.

A549 cells [6] = assay: Cytotoxicity test (MTT assay); type: cell-based, human; details: A549, result in words
Experimental: as §4, §5, §6

[7] = tested on: LPAR1 (lysophosphatidic acid receptor 1; NM_057159); assay: Oligo microarray gene expression in A549 cells, LPAR1; type: cell-based, human; details: A549, 48 hours at the concentration of Example 1-2, Cy5/Cy3 ratio
Experimental: as §1, §2, §3

[8] = tested on: HMOX1 (heme oxygenase 1; NM_002133); assay: Oligo microarray gene expression in A549 cells, HMOX1; type: cell-based, human; details: A549, 48 hours at the concentration of Example 1-2, Cy5/Cy3 ratio
Experimental: as §1, §2, §3

[9] = tested on: TNFSF10 (tumor necrosis factor (ligand) superfamily, member 10; NM_003810); assay: Oligo microarray gene expression in A549 cells, TNFSF10; type: cell-based, human; details: A549, 48 hours at the concentration of Example 1-2, Cy5/Cy3 ratio
Experimental: as §1, §2, §3

SMILES: CCC=O [propionaldehyde]
- Median ratio of microarray by propionaldehyde exposure, AGT [1]: 0.55
- genes showing at least 1.5 fold higher expression (Cy5/Cy3 ratio) (A549 cells [2]; 900 genes out of 42,405): 2.12%
- genes showing lower expression (Cy5/Cy3 ratio lower than 0.66) (A549 cells [2]; 1,522 genes out of 42,405): 3.59%
- Median ratio of microarray by propionaldehyde exposure, SECTM1 [3]: 0.63
- expression patterns of the 5 genes by real-time RT-PCR [4]: very similar to the results of microarray chip analysis
- IC20 at 48 h [5]: 2500 µM
- cytotoxicity in the human lung cancer tissue derived cell line (A549 cells [6]): had cytotoxicity
- Median ratio of microarray by propionaldehyde exposure, LPAR1 [7]: 0.62
- Median ratio of microarray by propionaldehyde exposure, HMOX1 [8]: 1.52
- Median ratio of microarray by propionaldehyde exposure, TNFSF10 [9]: 0.65
